Laboratory results published in patent publication US9546164B2 (GENENTECH, INC., priority 2013, dated 2017).
pIC50: −log10 of the molar value. Structures can show the parent of a compound that is named as a salt.

target: hNav1.7 (Homo sapiens (Human), UniProt Q15858); experiment: Tritiated sulfonamide competitive binding to membranes from cells expressing hNav1.7 and the β1 subunit; conditions: not given;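 further: Filter-bound radioactivity counted by liquid scintillation, nonspecific binding defined with excess unlabelled ligand, IC50 fitted to percent inhibition of specific binding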
Sequence (Q15858 other isoform, or with tags, fused parts or gaps): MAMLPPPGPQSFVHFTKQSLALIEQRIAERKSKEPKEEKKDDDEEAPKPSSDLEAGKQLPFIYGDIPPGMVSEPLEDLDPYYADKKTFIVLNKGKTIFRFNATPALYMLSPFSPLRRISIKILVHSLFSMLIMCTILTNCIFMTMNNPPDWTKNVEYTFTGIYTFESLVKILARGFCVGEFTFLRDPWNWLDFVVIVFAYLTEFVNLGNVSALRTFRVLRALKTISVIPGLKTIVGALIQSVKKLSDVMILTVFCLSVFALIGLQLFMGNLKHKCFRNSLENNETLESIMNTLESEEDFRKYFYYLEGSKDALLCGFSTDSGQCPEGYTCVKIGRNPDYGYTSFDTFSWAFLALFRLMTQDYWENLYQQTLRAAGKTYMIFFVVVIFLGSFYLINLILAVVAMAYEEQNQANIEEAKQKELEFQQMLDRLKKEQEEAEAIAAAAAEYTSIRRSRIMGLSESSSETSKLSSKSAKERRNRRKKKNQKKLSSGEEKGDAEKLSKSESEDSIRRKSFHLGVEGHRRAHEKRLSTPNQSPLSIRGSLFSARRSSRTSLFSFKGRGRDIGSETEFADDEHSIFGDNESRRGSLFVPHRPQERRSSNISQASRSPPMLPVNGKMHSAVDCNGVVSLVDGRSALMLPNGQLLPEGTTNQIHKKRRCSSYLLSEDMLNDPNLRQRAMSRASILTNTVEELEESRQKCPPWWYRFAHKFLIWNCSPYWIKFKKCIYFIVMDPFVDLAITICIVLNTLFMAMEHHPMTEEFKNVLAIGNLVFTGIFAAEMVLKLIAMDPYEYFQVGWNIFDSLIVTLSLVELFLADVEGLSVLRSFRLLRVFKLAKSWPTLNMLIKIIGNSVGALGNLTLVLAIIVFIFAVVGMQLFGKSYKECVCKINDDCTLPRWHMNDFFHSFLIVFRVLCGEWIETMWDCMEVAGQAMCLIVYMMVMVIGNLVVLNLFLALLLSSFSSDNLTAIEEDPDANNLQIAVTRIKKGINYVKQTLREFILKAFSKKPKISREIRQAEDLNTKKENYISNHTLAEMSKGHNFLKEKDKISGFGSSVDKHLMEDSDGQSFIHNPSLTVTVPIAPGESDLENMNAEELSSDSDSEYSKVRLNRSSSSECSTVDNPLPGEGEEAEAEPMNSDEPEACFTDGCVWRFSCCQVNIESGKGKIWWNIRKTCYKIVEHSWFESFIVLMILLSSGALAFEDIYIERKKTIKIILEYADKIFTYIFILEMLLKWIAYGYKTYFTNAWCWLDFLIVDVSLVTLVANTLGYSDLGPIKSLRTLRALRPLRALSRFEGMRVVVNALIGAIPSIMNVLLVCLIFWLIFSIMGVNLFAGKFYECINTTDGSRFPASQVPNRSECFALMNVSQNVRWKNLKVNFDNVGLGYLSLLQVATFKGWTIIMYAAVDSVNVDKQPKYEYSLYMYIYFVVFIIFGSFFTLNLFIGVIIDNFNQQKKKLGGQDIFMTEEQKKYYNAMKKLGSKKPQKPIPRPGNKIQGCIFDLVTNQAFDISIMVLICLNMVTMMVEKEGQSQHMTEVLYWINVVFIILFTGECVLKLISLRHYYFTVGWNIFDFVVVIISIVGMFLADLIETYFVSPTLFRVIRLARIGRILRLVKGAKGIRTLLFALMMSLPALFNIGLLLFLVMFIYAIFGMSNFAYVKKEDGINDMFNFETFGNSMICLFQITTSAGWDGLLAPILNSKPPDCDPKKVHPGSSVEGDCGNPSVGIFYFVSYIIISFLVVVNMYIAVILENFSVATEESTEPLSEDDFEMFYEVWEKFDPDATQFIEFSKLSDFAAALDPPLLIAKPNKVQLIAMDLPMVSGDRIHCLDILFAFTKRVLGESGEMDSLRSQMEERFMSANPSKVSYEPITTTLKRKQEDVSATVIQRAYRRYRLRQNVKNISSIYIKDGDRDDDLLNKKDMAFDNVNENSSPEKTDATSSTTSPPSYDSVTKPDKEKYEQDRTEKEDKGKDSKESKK
Sequence (Q07699 19-218 partner): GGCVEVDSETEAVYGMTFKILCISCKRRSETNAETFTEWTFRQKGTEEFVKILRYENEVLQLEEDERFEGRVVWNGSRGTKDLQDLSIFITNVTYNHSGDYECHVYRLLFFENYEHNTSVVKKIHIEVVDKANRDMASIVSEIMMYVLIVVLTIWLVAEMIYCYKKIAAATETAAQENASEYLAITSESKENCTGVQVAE

| Structure (SMILES) | pIC50 |
| --- | --- |
| CC(C)(C)N1CCC[C@@H](Oc2cc(F)c(C(=O)NS(C)(=O)=O)cc2C2CC2)C1 [Example 538, (R)-4-((1-(tert-butyl)piperidin-3-yl)oxy)-5-cyclopropyl-2-fluoro-N-(methylsulfonyl)benzamide] | 5.15 |
| O=C(NS(=O)(=O)C1CC1)c1cc(C2CC2)c(CN2CCC(Oc3cc(C(F)(F)F)c(Cl)cn3)CC2)cc1F [Example 522, 4-((4-((5-chloro-4-(trifluoromethyl)pyridin-2-yl)oxy)piperidin-1-yl)methyl)-5-cyclopropyl-N-(cyclopropylsulfonyl)-2-fluorobenzamide, trifluoroacetic acid salt] | 8.28 |
| Cc1ccc(CN2CCC[C@@H](Oc3cc(F)c(C(=O)NS(=O)(=O)N4CCC4)cc3C3CC3)C2)cc1 [Example 33, (R)—N-(azetidin-1-ylsulfonyl)-5-cyclopropyl-2-4-fluoro-((1-(4-methylbenzyl)piperidin-3-yl)oxy)benzamide] | 7.88 |
| CS(=O)(=O)NC(=O)c1cc(C2CC2)c(O[C@@H]2CCCN(Cc3ccc(Cl)cc3Cl)C2)cc1F [Example 29, (R)-5-cyclopropyl-4-((1-(2,4-dichlorobenzyl)piperidin-3-yl)oxy)-2-fluoro-N-(methylsulfonyl)benzamide] | 8.77 |
| CS(=O)(=O)NC(=O)c1cc(C2CC2)c(O[C@@H]2CCCN(Cc3ccc(F)cc3C(F)(F)F)C2)cc1F [Example 34, (R)-5-cyclopropyl-2-fluoro-4-((1-(4-fluoro-2-(trifluoromethyl)benzyl)piperidin-3-yl)oxy)-N-(methylsulfonyl)benzamide] | 8.72 |
| O=C(NS(=O)(=O)N1CCC1)c1cc(C2CC2)c(O[C@@H]2CCCN(Cc3ccc(F)cc3)C2)cc1F [Example 22] | 7.74 |

same assay, conditions: read-out: Ligand Binding Assay; 100 pM [3H]compound, membranes with hNav1.7 and β1 subunit, 18 h, room temperature

| pIC50 | Structure (SMILES) |
| --- | --- |
| 8.42 | CS(=O)(=O)NC(=O)c1cc(C2CC2)c(OCC2CCN(c3cccc(Cl)c3)CC2)cc1F [Example 294, 4-((1-(3-Chlorophenyl)piperidin-4-yl)methoxy)-5-cyclopropyl-2-fluoro-N-(methylsulfonyl)benzamide] |
| 8.12 | CC(c1cc(Cl)cc(Cl)c1)N1CC(COc2cc(F)c(C(=O)NS(C)(=O)=O)cc2C2CC2)C1 (centres unmarked) [Example 98, 5-Cyclopropyl-4-((1-(1-(3,5-dichlorophenyl)ethyl)azetidin-3-yl)methoxy)-2-fluoro-N-(methylsulfonyl)benzamide] |
| 5.57 | Cc1nc(CN2CCC(COc3cc(F)c(C(=O)NS(=O)(=O)C4CC4)cc3C3CC3)CC2)cs1 [Example 354, 5-cyclopropyl-N-(cyclopropylsulfonyl)-2-fluoro-4-((1-((2-methylthiazol-4-yl)methyl)piperidin-4-yl)methoxy)benzamide, trifluoroacetic acid salt] |
| 8.80 | CS(=O)(=O)NC(=O)c1cc(C2CC2)c(OCC2CCN(C(c3ccc(F)cc3Cl)C(F)(F)F)CC2)cc1F (centres unmarked) [Example 300, 4-((1-(1-(2-chloro-4-fluorophenyl)-2,2,2-trifluoroethyl)piperidin-4-yl)methoxy)-5-cyclopropyl-2-fluoro-N-(methylsulfonyl)benzamide] |
| 8.69 | CS(=O)(=O)NC(=O)c1cc(C2CC2)c(OCC2CCN(Cc3cc(Cl)cc(C(F)(F)F)c3)CC2)cc1F [Example 137, 4-((1-(3-Chloro-5-(trifluoromethyl)benzyl)piperidin-4-yl)methoxy)-5-cyclopropyl-2-fluoro-N-(methylsulfonyl)benzamide] |
| 8.31 | CS(=O)(=O)NC(=O)c1cc(C2CC2)c(OCC2CCN(Cc3cc(Cl)cc(Cl)c3)CC2)cc1F [Example 139, 5-Cyclopropyl-4-((1-(3,5-dichlorobenzyl)piperidin-4-yl)methoxy)-2-fluoro-N-(methylsulfonyl)benzamide] |
| 8.35 | CS(=O)(=O)NC(=O)c1cc(C2CC2)c(OCC2CCN([C@@H](c3cc(Cl)cc(Cl)c3)C(F)F)CC2)cc1F (single isomer, unassigned) [Example 224] |
| 8.29 | CCS(=O)(=O)NC(=O)c1cc(C2CC2)c(OCC2CCN(Cc3cc(Cl)cc(Cl)c3)CC2)cc1F [Example 184, 5-Cyclopropyl-4-((1-(3,5-dichlorobenzyl)piperidin-4-yl)methoxy)-N-(ethylsulfonyl)-2-fluorobenzamide] |
| 8.30 | CS(=O)(=O)NC(=O)c1cc(C2CC2)c(OCC2CCN(Cc3cc(Cl)c(F)c(Cl)c3)CC2)cc1F [Example 454, 5-cyclopropyl-4-((1-(3,5-dichloro-4-fluorobenzyl)piperidin-4-yl)methoxy)-2-fluoro-N-(methylsulfonyl)benzamide, trifluoroacetic acid salt] |

The next lines start with the compound.

| Structure (SMILES) | pIC50 |
| --- | --- |
| COC[C@@H](c1ccccc1)N1CCC(COc2cc(F)c(C(=O)NS(C)(=O)=O)cc2C2CC2)CC1 [Example 222, (R)-5-cyclopropyl-2-fluoro-4-((1-(2-methoxy-1-phenylethyl)piperidin-4-yl)methoxy)-N-(methylsulfonyl)benzamide] | 6.80 |
| C[C@H]1CC[C@@H](Oc2cc(F)c(C(=O)NS(C)(=O)=O)cc2C2CC2)CN1Cc1ccc(F)cc1Cl [Example 324, 4-(((3R,6S)-1-(2-chloro-4-fluorobenzyl)-6-methylpiperidin-3-yl)oxy)-5-cyclopropyl-2-fluoro-N-(methylsulfonyl)benzamide] | 8.57 |
| O=C(NS(=O)(=O)C1CC1)c1cc(C2CC2)c(OCC2(F)CCN(Cc3cc(C(F)(F)F)cc(Cl)c3F)CC2)cc1F [Example 347, 4-((1-(3-chloro-2-fluoro-5-(trifluoromethyl)benzyl)-4-fluoropiperidin-4-yl)methoxy)-5-cyclopropyl-N-(cyclopropylsulfonyl)-2-fluorobenzamide, trifluoroacetic acid salt] | 8.20 |
| C[C@@H](c1ccc(F)cc1Cl)N1CCC[C@@H](Oc2cc(F)c(C(=O)NS(C)(=O)=O)cc2C2CC2)C1 [Example 295, 4-(((R)-1-((S)-1-(2-chloro-4-fluorophenyl)ethyl)piperidin-3-yl)oxy)-5-cyclopropyl-2-fluoro-N-(methylsulfonyl)benzamide] | 8.64 |
| CC1(COc2cc(F)c(C(=O)NS(C)(=O)=O)cc2C2CC2)CN(C(c2ccccc2)c2ccccc2)C1 [Example 68, 4-((1-benzhydryl-3-methylazetidin-3-yl)methoxy)-5-cyclopropyl-2-fluoro-N-(methylsulfonyl)benzamide] | 8.19 |
| CS(=O)(=O)NC(=O)c1cc(C2CC2)c(OCC2CN([C@@H](c3ccccc3)c3cccc(C#N)c3)C2)cc1F [Example 108, (S)-4-((1-((3-Cyanophenyl)(phenyl)methyl)azetidin-3-yl)methoxy)-5-cyclopropyl-2-fluoro-N-(methylsulfonyl)benzamide] | 7.03 |
| CS(=O)(=O)NC(=O)c1cc(C2CC2)c(O[C@@H]2CCCN(Cc3cc(F)ccc3C(F)(F)F)C2)cc1F [Example 318, (R)-5-cyclopropyl-2-fluoro-4-((1-(5-fluoro-2-(trifluoromethyl)benzyl)piperidin-3-yl)oxy)-N-(methylsulfonyl)benzamide] | 8.59 |
| CS(=O)(=O)NC(=O)c1cc(C2CC2)c(O[C@@H]2CCCN([C@@H](c3ccc(F)cc3Cl)C(F)(F)F)C2)cc1F (single isomer, unassigned) [Example 298] | 8.34 |
